Experimental data reported in ChEMBL document CHEMBL4602695, “Discovery and SARs of 5-Chloro-N4-phenyl-N2-(pyridin-2-yl)pyrimidine-2,4-diamine Derivatives as Oral Available and Dual CDK 6 and 9 Inhibitors with Potent Antitumor Activity” (J Med Chem, 2020).
Activity calls are given as the source filed them. The rule behind the calls is not given here.

How the values were obtained:
[1] = target: CDK9/cyclin T1 (Homo sapiens) (UniProt O60563+P50750); assay: Binding affinity to recombinant His-tagged CDK9/cyclin T1 (unknown origin) expressed in HEK293T cells assessed as thermal stabilization of protein at 10 uM measured for 3 mins at 57 degC by CETSA; format: cell-based; settings: HEK-293T
[2] = target: Cyclin-dependent kinase 6 (Homo sapiens) (UniProt Q00534); assay: Inhibition of CDK6 in human MDA-MB-231 cells assessed as down regulation of E2F1 expression at 4 to 12 uM measured after 48 hrs by Western blot analysis; format: cell-based
[3] = target: Cyclin-dependent kinase 9 (Homo sapiens) (UniProt P50750); assay: Inhibition of CDK9 in human MDA-MB-231 cells assessed as reduction in c-Myc mRNA level at 4 to 12 uM by trizol reagent based qRT-PCR analysis; format: cell-based
[4] = target: CDK3/Cyclin E (Homo sapiens) (UniProt P24864+Q00526); settings: Sf9, 1 uM
[5] = target: Cyclin-dependent kinase 9 (Homo sapiens) (UniProt P50750); assay: Inhibition of CDK9 in human MDA-MB-231 cells assessed as reduction in Mcl-1 mRNA level at 4 to 12 uM by trizol reagent based qRT-PCR analysis; format: cell-based
MDA-MB-231 [6] = assay: Effect on CDK6 expression in human MDA-MB-231 cells at 4 to 12 uM measured after 48 hrs by Western blot analysis; format: functional, cell-based
MDA-MB-231 [7] = assay: Induction of apoptosis in human MDA-MB-231 cells xenografted in BALB/c nu/nu mouse assessed as increase in intracellular space at 22.5 to 90 mg/kg, po administered once daily for 3 weeks measured post-last dose by H and E staining based histopathological analysis; format: functional, organism-based
[8] = target: Cyclin-dependent kinase 9 (Homo sapiens) (UniProt P50750); assay: Inhibition of CDK9 in human MDA-MB-231 cells assessed as down regulation of cyclin T1 expression at 4 to 12 uM measured after 48 hrs by Western blot analysis; format: cell-based
MDA-MB-231 [9] = assay: Antitumor activity against human MDA-MB-231 cells xenografted in po dosed BALB/c nu/nu mouse assessed as tumor growth inhibition administered once daily for 3 weeks and measured at 3 days interval during compound dosing; format: functional, organism-based
MDA-MB-231 [10] = assay: Induction of apoptosis in human MDA-MB-231 cells xenografted in BALB/c nu/nu mouse assessed as increase in cytoplasm shrinkage at 22.5 to 90 mg/kg, po administered once daily for 3 weeks measured post-last dose by H and E staining based histopathological analysis; format: functional, organism-based
MDA-MB-231 [11] = assay: Induction of apoptosis in human MDA-MB-231 cells xenografted in BALB/c nu/nu mouse assessed as increase in nucleoplasm staining at 22.5 to 90 mg/kg, po administered once daily for 3 weeks measured post-last dose by H and E staining based histopathological analysis; format: functional, organism-based
[12] = target: Cyclin-C/Cyclin-dependent kinase 19 (Homo sapiens) (UniProt Q9BWU1+P24863); assay: Inhibition of recombinant human GST-tagged/His-tagged CDK11 (1 to 502 residues)/cyclinC (1 to 283 residues) expressed in insect cells at 1 uM using PAK1 (148 to 210 residues) as substrate measured after 10 to 60 mins by ADP-glo assay relative to control
MDA-MB-231 [13] = assay: Induction of intracellular reactive oxygen species production in human MDA-MB-231 cells measured after 48 hrs by DCFH-DA probe based flow cytometry; format: functional, cell-based
[14] = target: Cyclin-dependent kinase 6 (Homo sapiens) (UniProt Q00534); assay: Inhibition of CDK6 in human MDA-MB-231 cells assessed as down regulation of p-Rb expression at 4 to 12 uM measured after 48 hrs by Western blot analysis; format: cell-based
[15] = target: Cyclin-dependent kinase 9 (Homo sapiens) (UniProt P50750); assay: Inhibition of CDK9 in human MDA-MB-231 cells assessed as down regulation of p-Pol II CTD S2 expression at 4 to 12 uM measured after 48 hrs by Western blot analysis; format: cell-based
[16] = target: CDK6/cyclin D3 (Homo sapiens) (UniProt P30281+Q00534); assay: Binding affinity to recombinant His-tagged CDK6/cyclin D3 (unknown origin) expressed in HEK293T cells assessed as thermal stabilization of protein at 10 uM measured for 3 mins at 57 degC by CETSA; format: cell-based; settings: HEK-293T
MDA-MB-231 [17] = assay: Effect on CDK9 expression in human MDA-MB-231 cells at 4 to 12 uM measured after 48 hrs by Western blot analysis; format: functional, cell-based
MDA-MB-231 [18] = assay: Induction of apoptosis in human MDA-MB-231 cells assessed as early apoptotic cells at 20 uM measured after 48 hrs by Annexin V-FITC/propidium iodide staining based flow cytometry (0.877%); format: functional
MDA-MB-231 [19] = assay: Cell cycle arrest in human MDA-MB-231 cells assessed as accumulation at G0/G1 phase at 20 uM measured after 48 hrs by propidium iodide staining based flow cytometry (reference value: 57.65%); format: functional
MDA-MB-231 [20] = assay: Cell cycle arrest in human MDA-MB-231 cells assessed as accumulation at G2/M phase at 20 uM measured after 48 hrs by propidium iodide staining based flow cytometry (reference value: 15.9%); format: functional
MDA-MB-231 [21] = assay: Cell cycle arrest in human MDA-MB-231 cells assessed as accumulation at S phase at 20 uM measured after 48 hrs by propidium iodide staining based flow cytometry (reference value: 26.45%); format: functional
MCF7 = assay: Antiproliferative activity against human MCF7 cells assessed as inhibition of cell proliferation measured after 48 hrs by CCK8 assay; format: functional, cell-based; settings: MCF7, 48 h
MDA-MB-231 [22] = assay: Induction of apoptosis in human MDA-MB-231 cells assessed as necrotic cells at 20 uM measured after 48 hrs by Annexin V-FITC/propidium iodide staining based flow cytometry (0.498%); format: functional
[23] = Cytotoxicity against human L02 cells assessed as inhibition of cell proliferation measured after 48 hrs by CCK8 assay; format: cell-based
MDA-MB-231 [24] = assay: Induction of apoptosis in human MDA-MB-231 cells assessed as late apoptotic cells at 20 uM measured after 48 hrs by Annexin V-FITC/propidium iodide staining based flow cytometry (2.78%); format: functional
Jurkat = assay: Antiproliferative activity against human Jurkat cells assessed as inhibition of cell proliferation measured after 48 hrs by CCK8 assay; format: functional, cell-based
MDA-MB-231 [25] = assay: Induction of apoptosis in human MDA-MB-231 cells assessed as viable cells at 20 uM measured after 48 hrs by Annexin V-FITC/propidium iodide staining based flow cytometry (95.8%); format: functional; settings: MDA-MB-231, 48 h, read-out: Activity
MDA-MB-231 [26] = assay: Antiproliferative activity against human MDA-MB-231 cells assessed as inhibition of cell proliferation measured after 48 hrs by CCK8 assay; format: functional, cell-based; settings: MDA-MB-231, 48 h

Chain of Cyclin-dependent kinase 9 (Homo sapiens) (P50750 whole entry): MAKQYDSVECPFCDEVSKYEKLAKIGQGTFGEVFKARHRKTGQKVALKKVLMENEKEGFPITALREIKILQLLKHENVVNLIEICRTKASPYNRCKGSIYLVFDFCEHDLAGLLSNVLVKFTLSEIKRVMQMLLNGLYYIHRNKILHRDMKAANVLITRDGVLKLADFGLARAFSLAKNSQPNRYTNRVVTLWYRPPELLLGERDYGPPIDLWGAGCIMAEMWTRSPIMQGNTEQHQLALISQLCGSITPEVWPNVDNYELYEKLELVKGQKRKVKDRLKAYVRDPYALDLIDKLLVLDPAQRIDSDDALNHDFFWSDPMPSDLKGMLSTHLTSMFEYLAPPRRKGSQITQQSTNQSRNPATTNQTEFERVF
Chain of Cyclin-dependent kinase 6 (Homo sapiens) (Q00534 whole entry): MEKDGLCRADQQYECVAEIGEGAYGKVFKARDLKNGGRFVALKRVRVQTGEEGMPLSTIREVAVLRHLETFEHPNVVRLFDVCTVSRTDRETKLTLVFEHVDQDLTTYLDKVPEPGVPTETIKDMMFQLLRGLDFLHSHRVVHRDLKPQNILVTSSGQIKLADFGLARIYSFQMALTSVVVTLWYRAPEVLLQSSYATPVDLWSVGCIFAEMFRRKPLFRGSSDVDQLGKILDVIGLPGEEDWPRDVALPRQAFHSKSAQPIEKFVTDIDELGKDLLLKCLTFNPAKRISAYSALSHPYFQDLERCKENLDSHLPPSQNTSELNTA
Chain of CDK3/Cyclin E (Homo sapiens) (P24864 whole entry, looked up): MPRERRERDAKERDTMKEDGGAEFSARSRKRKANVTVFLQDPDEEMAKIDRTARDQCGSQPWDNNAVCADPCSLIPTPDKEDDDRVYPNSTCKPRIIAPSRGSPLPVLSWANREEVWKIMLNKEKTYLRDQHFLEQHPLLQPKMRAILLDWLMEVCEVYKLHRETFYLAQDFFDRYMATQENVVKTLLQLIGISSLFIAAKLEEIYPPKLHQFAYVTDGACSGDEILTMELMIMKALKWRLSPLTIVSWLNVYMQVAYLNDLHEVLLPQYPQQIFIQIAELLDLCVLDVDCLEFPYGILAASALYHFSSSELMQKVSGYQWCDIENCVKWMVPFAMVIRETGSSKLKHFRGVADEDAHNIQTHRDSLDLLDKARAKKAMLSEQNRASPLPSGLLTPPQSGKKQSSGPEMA
Chain of CDK3/Cyclin E (Homo sapiens) (Q00526 whole entry, looked up): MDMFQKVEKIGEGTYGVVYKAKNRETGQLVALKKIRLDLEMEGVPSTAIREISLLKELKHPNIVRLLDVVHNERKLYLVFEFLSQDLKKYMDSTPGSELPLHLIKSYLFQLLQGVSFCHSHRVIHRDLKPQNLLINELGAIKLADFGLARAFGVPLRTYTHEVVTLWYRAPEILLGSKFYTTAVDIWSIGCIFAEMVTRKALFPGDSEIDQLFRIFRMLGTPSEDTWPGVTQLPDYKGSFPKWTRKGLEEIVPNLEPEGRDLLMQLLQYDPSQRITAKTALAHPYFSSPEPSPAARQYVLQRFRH

Compound: CC(=O)Nc1cccc(Nc2nc(Nc3ccc(N4CCN(C)CC4)cn3)ncc2Cl)c1
- Activity [1]: Active
- inhibition [2]: Active
- inhibition [3]: Active
- inhibition [4]: < 6.6%
- inhibition [5]: Active
- Activity (MDA-MB-231 [6]): inactive
- Activity (MDA-MB-231 [7]): Active
- inhibition [8]: Active
- TGI (MDA-MB-231 [9]): Dose-dependent effect
- Activity (MDA-MB-231 [10]): Active
- Activity (MDA-MB-231 [11]): Active
- inhibition [12]: < 6.6%
- Activity (MDA-MB-231 [13]): Dose-dependent effect
- inhibition [14]: Active
- inhibition [15]: Active
- Activity [16]: Active
- Activity (MDA-MB-231 [17]): inactive

Compound: CC(=O)c1c(C)c2cnc(Nc3ccc(N4CCNCC4)cn3)nc2n(C2CCCC2)c1=O [PALBOCICLIB]
- Activity (MDA-MB-231 [18]): 3.43%
- Activity (MDA-MB-231 [19]): 91.91%
- Activity (MDA-MB-231 [20]): 3.12%
- Activity (MDA-MB-231 [21]): 4.98%
- GI50 (MCF7): > 100 µM
- Activity (MDA-MB-231 [22]): 2.32%
- GI50 at 48 h [23]: > 100 µM
- Activity (MDA-MB-231 [24]): 5.26%
- GI50 (Jurkat): > 100 µM
- viability at 20 µM (MDA-MB-231 [25]): 89%
- GI50 (MDA-MB-231 [26]): > 100 µM
